In ChEMBL document CHEMBL1145006 (J Med Chem, 2003):
Starred links: 1 amine or outer side, 2 acyl side, 3 side chain; linkers in the order of their positions; H or OH if unused. Positions of bridges follow the written chain, without caps; N, C: chain ends. Non-standard residues stand in square brackets, D forms with d. Residues, ends and D or L forms follow the SMILES beside them. Groups on a side chain read outwards from the residue. *: point of attachment. Ethylenediamine = C(CN[*:2])N[*:1]; Hyp = O=C(O)[C@@H]1C[C@@H](O)CN1; Phg = N[C@H](C(=O)O)c1ccccc1; CO = O=C([*:1])[*:2]; Bn = c1ccc(C*)cc1

Tests used:
[1] = target: Somatostatin receptor type 1 (Homo sapiens, UniProt P30872); assay: Binding affinity towards human Somatostatin receptor type 1 (sst1) using Tyr11-[125I]-SRIF as radioligand was determined in CHO cells; format: cell-based
[2] = target: Somatostatin receptor type 4 (Homo sapiens, UniProt P31391); assay: Binding affinity towards human Somatostatin receptor type 4 (sst4) using Tyr11-[125I]-SRIF as radioligand was determined in CHO cells; format: cell-based; details: for Log Ki: cho
[3] = target: Somatostatin receptor type 5 (Homo sapiens, UniProt P35346); assay: Binding affinity towards human Somatostatin receptor type 5 (sst5) using Tyr11-[125I]-SRIF as radioligand was determined in COS cell; format: cell-based
[4] = target: Somatostatin receptor type 2 (Homo sapiens, UniProt P30874); assay: Binding affinity towards human Somatostatin receptor type 2 (sst2) using Tyr11-[125I]-SRIF as radioligand was determined in CHO cells; format: cell-based
Rattus norvegicus = species: Rattus norvegicus; assay: In vitro inhibition of GHRH induced GH release in primary cultures of rat pituitary cells; format: functional, cell-based; details: Pituitary gland cell
[5] = target: Somatostatin receptor type 3 (Homo sapiens, UniProt P32745); assay: Binding affinity towards human Somatostatin receptor type 3 (sst3) using Tyr11-[125I]-SRIF as radioligand was determined in CHO cells; format: cell-based
Sequence of Somatostatin receptor type 3 (P32745 whole entry): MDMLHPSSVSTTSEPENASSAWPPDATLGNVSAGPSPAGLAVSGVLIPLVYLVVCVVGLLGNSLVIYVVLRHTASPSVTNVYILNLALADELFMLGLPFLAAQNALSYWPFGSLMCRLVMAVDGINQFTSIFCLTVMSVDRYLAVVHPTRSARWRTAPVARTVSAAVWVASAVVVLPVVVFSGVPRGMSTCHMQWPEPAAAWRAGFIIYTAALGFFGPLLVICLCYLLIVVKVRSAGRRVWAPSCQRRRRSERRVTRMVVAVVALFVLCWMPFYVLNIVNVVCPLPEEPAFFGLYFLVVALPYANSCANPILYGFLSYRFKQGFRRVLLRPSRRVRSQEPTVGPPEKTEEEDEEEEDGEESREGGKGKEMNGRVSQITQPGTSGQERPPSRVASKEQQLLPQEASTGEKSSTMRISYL

Sequence of Somatostatin receptor type 1 (P30872 whole entry): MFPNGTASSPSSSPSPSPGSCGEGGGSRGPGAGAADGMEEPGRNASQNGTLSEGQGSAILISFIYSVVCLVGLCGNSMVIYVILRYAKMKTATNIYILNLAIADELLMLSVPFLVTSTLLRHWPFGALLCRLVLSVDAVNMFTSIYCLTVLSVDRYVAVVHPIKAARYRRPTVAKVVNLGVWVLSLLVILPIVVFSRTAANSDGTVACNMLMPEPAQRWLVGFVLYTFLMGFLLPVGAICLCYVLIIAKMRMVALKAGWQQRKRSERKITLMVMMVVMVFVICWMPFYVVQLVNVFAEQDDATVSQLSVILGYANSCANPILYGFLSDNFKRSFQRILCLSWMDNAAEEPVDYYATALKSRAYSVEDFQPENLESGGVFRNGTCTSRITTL
Sequence of Somatostatin receptor type 5 (P35346 whole entry): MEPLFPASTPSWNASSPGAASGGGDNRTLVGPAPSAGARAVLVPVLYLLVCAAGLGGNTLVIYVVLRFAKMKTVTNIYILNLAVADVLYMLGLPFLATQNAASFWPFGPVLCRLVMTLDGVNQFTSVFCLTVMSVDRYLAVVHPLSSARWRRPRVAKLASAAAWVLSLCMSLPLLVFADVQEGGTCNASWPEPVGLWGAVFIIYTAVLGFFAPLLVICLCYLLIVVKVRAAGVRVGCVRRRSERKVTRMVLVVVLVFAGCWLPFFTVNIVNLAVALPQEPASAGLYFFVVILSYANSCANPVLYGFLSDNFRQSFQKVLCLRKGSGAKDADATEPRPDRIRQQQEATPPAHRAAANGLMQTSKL
Sequence of Somatostatin receptor type 2 (P30874 whole entry): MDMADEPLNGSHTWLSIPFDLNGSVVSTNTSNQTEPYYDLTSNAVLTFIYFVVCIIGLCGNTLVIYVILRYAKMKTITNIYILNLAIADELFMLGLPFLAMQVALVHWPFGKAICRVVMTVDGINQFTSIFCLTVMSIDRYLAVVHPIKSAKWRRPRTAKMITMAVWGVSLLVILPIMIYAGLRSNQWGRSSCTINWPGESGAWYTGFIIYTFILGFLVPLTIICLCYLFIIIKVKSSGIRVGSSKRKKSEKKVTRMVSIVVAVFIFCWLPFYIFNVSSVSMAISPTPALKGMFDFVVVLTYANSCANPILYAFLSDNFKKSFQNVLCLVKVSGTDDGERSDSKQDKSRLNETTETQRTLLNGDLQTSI
Sequence of Somatostatin receptor type 4 (P31391 whole entry): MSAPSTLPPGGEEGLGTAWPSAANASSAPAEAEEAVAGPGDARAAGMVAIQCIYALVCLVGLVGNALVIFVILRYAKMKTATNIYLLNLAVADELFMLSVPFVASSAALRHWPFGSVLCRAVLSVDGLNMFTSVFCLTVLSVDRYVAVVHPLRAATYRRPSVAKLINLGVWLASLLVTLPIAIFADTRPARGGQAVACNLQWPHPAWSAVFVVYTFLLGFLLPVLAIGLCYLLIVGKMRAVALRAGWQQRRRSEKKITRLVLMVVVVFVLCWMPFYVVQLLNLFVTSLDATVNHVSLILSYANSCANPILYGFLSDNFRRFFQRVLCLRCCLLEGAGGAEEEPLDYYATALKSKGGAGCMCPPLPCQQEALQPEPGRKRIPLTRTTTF

## NCCCC[C@@H]1NC(=O)[C@@H](Cc2c[nH]c3ccccc23)NC(=O)[C@H](c2ccccc2)NC(=O)[C@@H]2C[C@@H](OC(=O)NCCN)CN2C(=O)[C@H](Cc2ccccc2)NC(=O)[C@H](Cc2ccc(OCc3ccccc3)cc2)NC1=O [PASIREOTIDE] (cyclo(F[Hyp]([CO-Ethylenediamine])[Phg][dW]KY(Bn)))
[1]
  Ki: 6.31 nM
[2]
  Log Ki: > -7
[3]
  Ki: 0.126 nM
[4]
  Ki: 1 nM
Rattus norvegicus
  IC50: 0.4 nM
[5]
  Ki: 0.794 nM

## NCCCC[C@@H]1NC(=O)[C@@H](Cc2c[nH]c3ccccc23)NC(=O)[C@H](Cc2ccccc2)NC(=O)[C@@H]2C[C@@H](OC(=O)NCCN)CN2C(=O)[C@H](Cc2ccccc2)NC(=O)[C@H](Cc2ccc(OCc3ccccc3)cc2)NC1=O (cyclo(F[Hyp]([CO-Ethylenediamine])F[dW]KY(Bn)))
[1]
  Ki: 3.98 nM
[2]
  Ki: 501 nM
[3]
  Ki: 0.398 nM
[4]
  Ki: 2 nM
[5]
  Ki: 0.794 nM

## C[C@H](N)C(=O)NCC(=O)N[C@H]1CSSC[C@@H](C(N)=O)NC(=O)[C@H](CO)NC(=O)[C@H]([C@@H](C)O)NC(=O)[C@H](Cc2ccccc2)NC(=O)[C@H]([C@@H](C)O)NC(=O)[C@H](CCCCN)NC(=O)[C@H](Cc2c[nH]c3ccccc23)NC(=O)[C@H](Cc2ccccc2)NC(=O)[C@H](C)NC(=O)[C@H](CC(N)=O)NC(=O)[C@H](CCCCN)NC1=O (H-AGCKNAFWKTFTSC-NH2; disulfide 3-14)
[1]
  Ki: 126 nM
[2]
  Log Ki: > -7.1
[3]
  Ki: 100 nM
[4]
  Ki: 20 nM
[5]
  Ki: 200 nM
